Reference: US20200071310A1, “N-ARYL PYRAZOLES AS NRF2 REGULATORS” (GLAXOSMITHKLINE INTELLECTUAL PROPERTY DEVELOPMENT LIMITED, priority 2016, published 2020)
Read-outs that look alike come from different tables or passages of the source.

Legend:
[1] = test system: NQO1 specific enzyme activity in BEAS-2B cells; assay: BEAS-2B NQO1 MTT Assay; assay type: cell-based; settings: Homo sapiens
Description: NAD(P)H:quinone oxidoreductase 1 (NQO1), also called DT diaphorase, is a homodimeric FAD-containing enzyme that catalyzes obligatory NAD(P)H-dependent two-electron reductions of quinones and protects cells against the toxic and neoplastic effects of free radicals and reactive oxygen species arising from one-electron reductions. The transcription of NQO1 is finely regulated by NRF2, and thus NQO1 activity is a good marker for NRF2 activation. On day one, frozen BEAS-2B cells (ATCC) were thawed in a water bath, counted, and re-suspended at a concentration of 250,000 cells/mL. Fifty microliters of cells were plated in 384 well black clear-bottomed plates. Plates were incubated at 37° C., 5% CO2 overnight. On day two, plates were centrifuged and 50 nL of compound or controls were added to the cells. Plates were then incubated at 37° C., 5% CO2 for 48 hours. On day four, medium was aspirated from the plate and crude cell lysates were made by adding 13 uL of 1× Cell Signaling Technologies lysis buffer with 1 Complete, Mini, EDTA-free Protease Inhibitor Tablet (Roche) for each 10 mL of lysis buffer. After lysis plates were incubated for 20 minutes at room temperature. Two microliters of lysate were removed for use in Cell Titer Glo assay (Promega) and MTT cocktail was prepared (Prochaska et. al. 1998) for measurement of NQO1 activity. Fifty microliters of MTT cocktail is added to each well, plate is centrifuged, and analyzed on an Envision plate reader (Perkin Elmer) using Absorbance 570 nm label for 30 minutes. Product formation was measured kinetically and the pEC50 of NQO1 specific activity induction was calculated by plotting the change in absorbance (Delta OD/min) versus the log of compound concentration followed by 3-parameter fitting. pEC50 is the negative log of the EC50.

[2] = target: T1, full length Keap1 protein / full length NRF2 protein (Homo sapiens, UniProt Q14145); assay: NRF2-Keap1 TR-FRET Low Protein Assay; assay type: binding
T1 construct: full length NRF2 protein and full length Keap1 protein (Keap1 exists a dimer) are used; His
T1 sequence (Q14145 whole entry): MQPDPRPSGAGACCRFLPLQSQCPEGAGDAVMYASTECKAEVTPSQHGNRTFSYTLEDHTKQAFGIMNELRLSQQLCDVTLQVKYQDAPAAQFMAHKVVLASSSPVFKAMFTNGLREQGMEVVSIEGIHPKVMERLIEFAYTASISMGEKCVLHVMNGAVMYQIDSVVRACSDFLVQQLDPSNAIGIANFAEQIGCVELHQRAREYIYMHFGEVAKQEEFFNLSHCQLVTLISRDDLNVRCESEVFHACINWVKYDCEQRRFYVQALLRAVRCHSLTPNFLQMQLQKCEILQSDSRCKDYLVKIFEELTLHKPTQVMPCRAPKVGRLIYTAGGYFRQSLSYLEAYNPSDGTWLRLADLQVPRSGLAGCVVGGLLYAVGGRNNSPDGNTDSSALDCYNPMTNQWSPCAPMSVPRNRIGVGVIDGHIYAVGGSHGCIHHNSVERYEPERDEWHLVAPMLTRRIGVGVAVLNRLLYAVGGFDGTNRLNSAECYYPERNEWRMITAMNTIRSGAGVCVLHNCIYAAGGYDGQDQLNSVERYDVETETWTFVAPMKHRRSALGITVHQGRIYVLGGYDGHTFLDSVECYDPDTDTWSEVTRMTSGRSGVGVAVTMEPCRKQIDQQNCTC
Description: In the NRF2-Keap1 TR-FRET (time-resolved fluorescence resonance energy transfer) low protein assay, full length NRF2 protein and full length Keap1 protein (Keap1 exists a dimer) are used. The assay detects a compound's ability to displace the binding of Keap1 FlagHis with biotinylated Avi-NRF2 protein. Biotin-NRF2 binds to streptavidin-europium (a component of the detection mix) and Keap1 FlagHis is recognized by anti-Flag APC (allophycocyanin) antibody (also a component of the detection mix). If binding occurs between the two proteins, there will be an energy transfer from the Eu+3 (donor) at 615 nm to the APC (acceptor) at 665 nm. A potential NRF2 inhibitor will cause a reduction in the TR-FRET signal by interfering with the binding of Keap1 to NRF2.
Ten nanoliters of 100× compound dose response curves (serial 3-fold dilutions) in DMSO were stamped using an Echo liquid handling system (Labcyte) into 384-well, low volume, black assay plates (Greiner, #784076), with DMSO in columns 6 and 18. An additional 90 nl DMSO was added to each well, to bring the total volume to 100 nl per well. The top concentration of compound was located in columns 1 and 13, with the serial dilutions going across the row. All reagents were diluted in assay buffer (50 mM Tris, pH 8.0, 5 mM MgCl2, 100 mM NaCl, 0.005% BSA, 1 mM DTT, and 2 mM CHAPS. The BSA, DTT, and CHAPS were added to the assay buffer on the day of assay. Using a Multidrop Combi (Thermo Electron Corporation) equipped with a metal tip dispenser, 5 ul of 1.25 nM Keap1 FlagHis protein was added to all wells of the compound plate, with the exception of the wells in column 18. Wells in column 18 received 5 ul of assay buffer instead. Plates were centrifuged at 500 rpm for 1 minute, covered with a plate lid, and incubated at 37° C. for 2.25 hours. Plates were then removed from the incubator and allowed to cool to RT for 15 minutes. Five microliters of 2.5 nM biotin-NRF2 protein was then added to all wells of the plates and the plates were spun at 500 rpm for 1 minute, followed by incubating at 4° C. for 1.25 hours. The plates were then allowed to warm to RT for 15 minutes, followed by the addition of 10 ul of detection mix (1 nM Streptavidin Eu+W1024 and 5 ug/ml mouse anti-DYKDDDDK IgG conjugated to SureLight APC antibody; both from Columbia Biosciences) to all wells. Plates were spun at 500 rpm for 1 minute, incubated for 1 hour at RT, and read on an Envision plate reader using a 320 nm excitation filter and 615 nm and 665 nm emission filters. Compound response (% inhibition) and potency (pIC50) were calculated based on the ratio of the two emissions (665 nm/615 nm) and then the transformed data was normalized against controls in the assay (control 1=1% DMSO in the presence of NRF2 and Keap1 protein and control 2=1% DMSO in the presence of only the NRF2 protein). Data analysis was handled using the software package Abase XE (Surrey, United Kingdom). The % inhibition values were calculated from the ratio (transformed) data by the equation:
100−(100*(compound response−average control 2)/(average control 1−average control2)).
For calculation of pIC50s, Abase XE used a four parameter equation.
IC50s<10 nM (+++++), IC50s 10-100 nM (++++), IC50s 100 nM-1 uM (+++), IC50s 1-10 uM (++). and IC50s 10 uM-100 uM (+), IC50s>100 uM (−), or were not determined (ND).

[3] = NQO1 specific activity induction, BEAS-2B cells, 48 hours, read-out: EC50

Cn1cc([C@@H]2C[C@H]2c2c(C(=O)O)cnn2-c2cccc(CN3CC(C)(C)Oc4ccc(F)cc4S3(=O)=O)c2)nn1 (racemic) [Example 5] gave an EC50 [1, 3] of 1000 to 10000 nM and an EC50 [2] of 10 to 100 nM.

Molecule Cn1cc([C@@H]2C[C@H]2c2c(C(=O)O)cnn2-c2cccc(CN3Cc4ccccc4CC(C)(C)C3)c2)nn1 (racemic) [Example 7] has an EC50 [1, 3] of 100 to 1000 nM and an EC50 [2] of 100 to 1000 nM.

Cn1cc([C@@H]2C[C@H]2c2c(C(=O)O)cnn2-c2cccc(CN3Cc4ccccc4OC(C)(C)C3)c2)nn1 (racemic) [Example 8] showed an EC50 [1, 3] of 1000 to 10000 nM and an EC50 [2] of 100 to 1000 nM.

Cn1cc([C@@H]2C[C@H]2c2c(C(=O)O)cnn2-c2cccc(CN3Cc4ncccc4OC(C)(C)C3)c2)nn1 (racemic) [Example 9] showed an EC50 [1, 3] of 100 to 1000 nM and an EC50 [2] of 100 to 1000 nM.

Cn1cc([C@@H]2C[C@H]2c2c(C(=O)O)cnn2-c2cccc(CN3Cc4cc(Br)ccc4OC(C)(C)C3)c2)nn1 (racemic) [Example 13] gave an EC50 [1, 3] of 100 to 1000 nM and an EC50 [2] of 10 to 100 nM.

With CC[C@@H]1CN(Cc2cccc(-n3ncc(C(=O)O)c3[C@@H]3C[C@H]3c3cn(C)nn3)c2)Cc2ccccc2O1 (racemic) [Example 14] the EC50 ([1]; BEAS-2B, 48 h) was 1000 to 10000 nM and the EC50 [2] was 1000 to 10000 nM.

Work on C[C@H]1Cc2ccc(C(F)(F)F)cc2S(=O)(=O)N(Cc2cccc(-n3ncc(C(=O)O)c3[C@@H]3C[C@H]3c3cn(C)nn3)c2)C1 (racemic) [Example 16, 1-(3-((4-methyl-1,1-dioxido-8-(trifluoromethyl)-4,5-dihydro-benzo[f][1,2]thiazepin-2(3H)-yl)methyl)phenyl)-5-((trans)-2-(1-methyl-1H-1,2,3-triazol-4-yl)cyclopropyl)-1H-pyrazole-4-carboxylic acid] yielded an EC50 [1, 3] of 100 to 1000 nM and an EC50 [2] of 10 to 100 nM.

With C[C@H]1Cc2ccc(Br)cc2S(=O)(=O)N(Cc2cccc(-n3ncc(C(=O)O)c3[C@@H]3C[C@H]3c3cn(C)nn3)c2)C1 (racemic) [Example 17, 1-(3-((8-bromo-4-methyl-1,1-dioxido-4,5-dihydrobenzo[f][1,2]thiazepin-2(3H)-yl)methyl)phenyl)-5-((trans)-2-(1-methyl-1H-1,2,3-triazol-4-yl)cyclopropyl)-1H-pyrazole-4-carboxylic acid] the EC50 [1, 3] was 100 to 1000 nM and the EC50 [2] was 10 to 100 nM.

For C[C@@H]1Cc2cc(C(F)(F)F)ccc2S(=O)(=O)N(Cc2cccc(-n3ncc(C(=O)O)c3[C@@H]3C[C@H]3c3cn(C)nn3)c2)C1 (racemic) [Example 18, 1-(3-((4-methyl-1,1-dioxido-7-(trifluoromethyl)-4,5-dihydro-benzo[f][1,2]thiazepin-2(3H)-yl)methyl)phenyl)-5-((trans)-2-(1-methyl-1H-1,2,3-triazol-4-yl)cyclopropyl)-1H-pyrazole-4-carboxylic acid], the EC50 [1, 3] was 10 to 100 nM and the EC50 [2] was 10 to 100 nM.

Molecule C[C@H]1Cc2cc(C(F)(F)F)ccc2S(=O)(=O)N(Cc2cccc(-n3ncc(C(=O)O)c3[C@@H]3C[C@H]3c3cn(C)nn3)c2)C1 (racemic) [Example 19, 1-(3-((4-methyl-1,1-dioxido-7-(trifluoromethyl)-4,5-dihydro-benzo[f][1,2]thiazepin-2(3H)-yl)methyl)phenyl)-5-((trans)-2-(1-methyl-1H-1,2,3-triazol-4-yl)cyclopropyl)-1H-pyrazole-4-carboxylic acid] has an EC50 [1, 3] of 1000 to 10000 nM and an EC50 [2] of 1000 to 10000 nM.

Work on Cn1cc([C@@H]2C[C@H]2c2c(C(=O)O)cnn2-c2cccc(Cn3ccnc3CC3CCCCCC3)c2)nn1 (racemic) [Example 23] yielded an EC50 [1, 3] of 100 to 1000 nM and an EC50 [2] of 10 to 100 nM.

In the case of Cn1cc([C@@H]2C[C@H]2c2c(C(=O)O)cnn2-c2cccc(Cn3ccnc3CN3CCCCC3)c2)nn1 (racemic) [Example 24], the EC50 [1, 3] is reported as 1000 to 10000 nM and the EC50 [2] is reported as 100 to 1000 nM.

CCCCCCN(Cc1cccc(-n2ncc(C(=O)O)c2[C@@H]2C[C@H]2c2cn(C)nn2)c1)S(=O)(=O)c1cccc(-c2ccccc2)c1 (racemic) [Example 34, 1-(3-((N-hexyl-[1,1′-biphenyl]-3-ylsulfonamido)methyl)phenyl)-5-((trans)-2-(1-methyl-1H-1,2,3-triazol-4-yl)cyclopropyl)-1H-pyrazole-4-carboxylic acid] was tested, and the EC50 [1, 3] was 10 to 100 nM and the EC50 [2] was 10 to 100 nM.
